From PubChem BioAssay AID1259340 (Broad Institute, 2017)
Active and inactive are the calls of the source.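 The calls were made as follows: active = AC50 no more than ten times the top concentration tested; inconclusive = flat fit with inhibition between 30% and 70%, or unusable fit; inactive = AC50 beyond ten times the top concentration.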

These compounds were tested against Caspase recruitment domain-containing protein 9 (Homo sapiens) + B-cell lymphoma/leukemia 10 (Homo sapiens) (UniProt Q9H257+O95999) (assay: disruptors of CARD9-BCL10 binding, dose response, selectivity assay for CARD9-TRIM62 disruptor project, cell lysate, HEK293FT lysates, Luminex bead ELISA (AID 1259340)). Settings: not given.
Chain of Caspase recruitment domain-containing protein 9 (Homo sapiens) + B-cell lymphoma/leukemia 10 (Homo sapiens) (O95999 whole entry, looked up, the tested form may be a part): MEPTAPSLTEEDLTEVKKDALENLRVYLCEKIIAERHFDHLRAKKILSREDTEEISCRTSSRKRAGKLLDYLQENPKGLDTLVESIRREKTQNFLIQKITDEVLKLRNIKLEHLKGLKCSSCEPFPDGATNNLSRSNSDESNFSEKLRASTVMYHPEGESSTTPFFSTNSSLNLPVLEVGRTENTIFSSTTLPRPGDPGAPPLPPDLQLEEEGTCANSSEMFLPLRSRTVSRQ
Chain of Caspase recruitment domain-containing protein 9 (Homo sapiens) + B-cell lymphoma/leukemia 10 (Homo sapiens) (Q9H257 whole entry, looked up, the tested form may be a part): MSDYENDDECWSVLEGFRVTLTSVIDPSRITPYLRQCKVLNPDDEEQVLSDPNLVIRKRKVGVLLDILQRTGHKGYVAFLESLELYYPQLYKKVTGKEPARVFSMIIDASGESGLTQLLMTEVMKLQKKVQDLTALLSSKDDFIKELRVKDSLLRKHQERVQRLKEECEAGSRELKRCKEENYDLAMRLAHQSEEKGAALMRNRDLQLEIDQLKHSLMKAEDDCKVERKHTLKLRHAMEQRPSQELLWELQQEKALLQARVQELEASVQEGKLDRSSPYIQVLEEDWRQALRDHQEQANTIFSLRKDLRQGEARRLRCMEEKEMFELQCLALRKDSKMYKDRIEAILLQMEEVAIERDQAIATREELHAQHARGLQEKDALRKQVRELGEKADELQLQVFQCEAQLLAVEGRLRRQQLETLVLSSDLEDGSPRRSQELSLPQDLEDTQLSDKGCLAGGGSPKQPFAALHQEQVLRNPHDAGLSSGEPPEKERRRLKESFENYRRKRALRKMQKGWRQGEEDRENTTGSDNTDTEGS

Row | Structure (SMILES) | AC50
1 | O=C(Nc1nccs1)c1cc(-c2ccco2)nc2ccccc12 | > 160 µM (inactive)
2 | O=C(NCC1CCCO1)c1cc(-c2ccco2)nc2ccccc12 (centres undefined) | > 160 µM (inactive)
3 | O=S(=O)(c1ccc2nc(-c3ccco3)c(-c3ccco3)nc2c1)N1CCOCC1 | 20.3 µM
4 | O=C1CC2(CCN(C(=O)Nc3ccccc3)CC2)CN1Cc1ccc(Cl)cc1 | 79.7 µM
5 | O=C(Nc1nncs1)c1cc(-c2ccco2)nc2ccccc12 | 68.5 µM
6 | O=C(Nc1nc(-c2ccco2)c(-c2ccco2)s1)C1CCC1 | > 160 µM (inactive)
7 | COc1ccc(-c2nnc(-c3nc(Nc4ccc(NC(C)=O)cc4)c4ccccc4n3)o2)cc1 | 64.5 µM
8 | O=[N+]([O-])c1cccc(-c2nnc3ccc4ccccc4n23)c1 | > 160 µM (inactive)
9 | c1ccc(-c2nc(-c3ccco3)n3ccccc23)cc1 | > 160 µM (inactive)
10 | O=C(COC(=O)c1cc(-c2cccs2)nc2ccccc12)NCc1ccco1 | > 160 µM (inactive)
11 | CC(=O)Nc1ccc(Nc2nc(-c3nnc(-c4cccc(C)c4)o3)nc3ccccc23)cc1 | 72.4 µM
12 | Cc1ccc2cc(CN(Cc3ccco3)S(C)(=O)=O)c(=O)[nH]c2c1 | > 160 µM (inactive)
13 | CCN1CCN(C(=O)c2cc(-c3ccco3)nc3ccccc23)CC1 | > 160 µM (inactive)
14 | CC(=O)c1sc2nc(-c3ccco3)ccc2c1N | 26.1 µM
15 | Cc1ccc(-c2nnc(-c3nc(Nc4nc5ccccc5s4)c4ccccc4n3)o2)cc1 | 64 µM
16 | CCOc1ccccc1NC(=O)N1CCCC(c2nccn2CCOC)C1 (centres undefined) | > 160 µM (inactive)
17 | O=C(O)C1Oc2cc3ccccc3cc2O1 | > 160 µM (inactive)
18 | O=C(O)c1ccc2nc(-c3ccco3)c(-c3ccco3)nc2c1 | 19.6 µM
19 | C[C@H](CO)N1C[C@H](C)[C@@H](CN(C)CC2CCCCC2)OCCCC[C@H](C)Oc2ccc(NS(=O)(=O)c3ccc(F)cc3)cc2C1=O | > 160 µM (inactive)
20 | Cc1ccc(Nc2nc(C(=O)Nc3ccc(Cl)cc3)nc3ccccc23)cc1 | > 160 µM (inactive)
21 | C=CC(=O)N1CCCC2(CCN(CCN3CCCC3)C2=O)C1 (centres undefined) | 22.7 µM
22 | O=C1CS/C(=N\N=C\c2ccco2)N1c1ccccc1 | > 160 µM (inactive)

Row | Structure (SMILES) | AC50
23 | O=C(COc1cccnc1[N+](=O)[O-])c1ccc(Cl)s1 | 40 µM
24 | Cc1ccc(-c2cc(C(=O)NCc3ccco3)c3ccccc3n2)o1 | 80.3 µM
25 | COc1cccc(NC(=O)CN(C)C(=O)c2cc3c(s2)CCC3)c1 | > 160 µM (inactive)
26 | O=C(O)CCc1ccc(-c2cccs2)n1NC(=O)c1ccco1 | > 160 µM (inactive)
27 | O=C(NC1(C(F)(F)F)Oc2ccc(Cl)cc2O1)N1CCC2(CC1)OCCO2 (centres undefined) | 74.8 µM
28 | CN(C)c1ccc(CN2C[C@H]3CC[C@@H]2CN(C(=O)c2ccncc2)C3)cn1 | > 160 µM (inactive)
29 | CC(=O)c1cccc(OCC(=O)N(C)CC(=O)NCc2ccco2)c1 | > 160 µM (inactive)
30 | CCc1ccc(Nc2nc(C(=O)NCc3ccc(N(C)C)cc3)nc3ccccc23)cc1 | 7.97 µM
31 | O=C(Nc1nccs1)c1cc(-c2ccccn2)nc2c(Cl)cccc12 | 41.1 µM
32 | O=C(NCc1ccco1)c1c2c(nc3ccccc13)CCC2 | > 160 µM (inactive)
33 | Cc1cccc2nc(CSCc3ccco3)cn12 | > 160 µM (inactive)
34 | O=C(Nc1nc(-c2ccco2)c(-c2ccco2)s1)c1ccc(F)cc1F | > 160 µM (inactive)
35 | Nc1ccc2ncccc2c1N | 16.1 µM
36 | COc1ccc2nc(-c3ccco3)c(-c3ccco3)nc2c1 | 39.2 µM
37 | C=CCNc1ncnc2c1CCN(C(=O)c1ccc(CSC)o1)CC2 | > 160 µM (inactive)
38 | C(=C\c1ccco1)/c1nc2ccccc2[nH]1 | 58.6 µM
39 | COc1ccc(-n2c(C)c3c(OC)cccc(=O)c3c2C)cc1 | > 160 µM (inactive)
40 | O=C(NC1CC1)c1cc(-c2ccco2)nc2ccccc12 | > 160 µM (inactive)
41 | Cc1nc(C)c(C(=O)Nc2ncc([N+](=O)[O-])s2)o1 | 66 µM
42 | O=C1C=C(c2ccccc2)Nc2ccccc2N1 | > 160 µM (inactive)
43 | NC(=O)c1ccc(CN2C(=O)C3(CCNCC3)Nc3ccccc32)cc1 | > 160 µM (inactive)

Same assay, conditions: at 80 µM (top of the series)

Row | Structure (SMILES) | activity change, negative = inhibition
44 | COc1ccc(-c2ccc(CCC(=O)O)o2)cc1 | inactive
45 | O=[N+]([O-])c1ccc2nn(Cc3ccccc3)cc2c1 | inactive
46 | O=C(COC(=O)c1cc(-c2ccco2)nc2ccccc12)NCc1ccccc1 | inactive
47 | CCCc1oc(C(=O)O)cc1CN | inactive
48 | CC(=O)c1ccc(NC(=O)c2noc3c2CCC3)cc1 | inactive
49 | c1coc(-c2cn3ccc4ccccc4c3n2)c1 | inactive
